Assay results from patent publication US7998978B2 (Pfizer Inc., priority 2006, dated 2011).

Target: T1, JNK1α1 (Homo sapiens, UniProt P45983)
T1 construct: catalytic domain containing amino acids 1-364 and N-terminal hexahistidine tag; hexahistidine (His6) (N); made in house; host or cells: E. coli BL21 (DE3)
Experiment: Coupled spectrophotometric (PK/LDH) JNK1α1 assay: % inhibition and Ki determination
Type: biochemical
Conditions: @1 uM; read-out: % Inhibition JNK-1
Summary of the method: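 Initial rates were taken from the absorbance decrease at 340 nm at 30° C. Ki was fitted with a tight-binding model over 11 concentrations (top 100 μM); single-point inhibition was tested at 1 or 10 μM.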

T1 sequence (P45983 1-364): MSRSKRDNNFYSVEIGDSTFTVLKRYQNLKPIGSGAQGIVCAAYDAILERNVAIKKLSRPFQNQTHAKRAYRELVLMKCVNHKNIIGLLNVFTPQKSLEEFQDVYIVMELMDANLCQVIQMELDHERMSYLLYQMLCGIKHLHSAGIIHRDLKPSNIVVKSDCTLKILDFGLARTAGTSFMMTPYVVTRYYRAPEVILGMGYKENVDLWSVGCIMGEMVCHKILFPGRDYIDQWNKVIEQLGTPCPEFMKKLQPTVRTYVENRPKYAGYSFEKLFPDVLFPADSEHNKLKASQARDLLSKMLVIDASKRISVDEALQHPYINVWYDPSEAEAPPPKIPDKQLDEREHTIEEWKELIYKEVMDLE

inhibition at 1 µM	SMILES
26%	Cc1noc(CNC(=O)c2cccc3cnc(N[C@H]4CC[C@H](O)CC4)nc23)n1 [Example 530, 2-[(trans-4-hydroxycyclohexyl)amino]-N-[(3-methyl-1,2,4-oxadiazol-5-yl)methyl]quinazoline-8-carboxamide]
26%	Cc1cccn(CCNC(=O)c2cccc3cnc(N[C@H]4CC[C@H](O)CC4)nc23)c1=O [Example 531, 2-[(trans-4-hydroxycyclohexyl)amino]-N-[2-(3-methyl-2-oxopyridin-1(2H)-yl)ethyl]quinazoline-8-carboxamide]
